Patent publication US20180354909A1, “SUBSTITUTED BENZIMIDAZOLIUM, PYRIDO-IMIDAZOLIUM, OR PYRAZINO-IMIDAZOLIUM COMPOUNDS AS CHEMOTHERAPEUTICS” (The Board of Regents of the University of Texas System, priority 2015, published 2018)

The molecules below were run on Mut6 (assay: Cytotox testing (CellTiter-Glo ATP assay) in Mut6 cells). Conditions: Mus musculus, 96 h, Mut6 cells, 4 days, CellTiter-Glo; read-out: Activity in Mut6 [EC50].
Type: cell-based, mouse
Procedure: Mut6 tumor cells were cultured in DMEM/F12 media supplemented by EGF (10 ng/mL), basic FGF (10 ng/mL), heparin (4 ug/mL), glucose (total 21 mM), NaHCO3 (113 μg/mL), Hepes (119 μg/mL), glutamine (2 mM), sodium pyruvate (1 mM), N2 supplement (ThermoFisher Gibco 17502-048, 100×, at 100-fold dilution), B27 supplement (ThermoFisher Gibco 12587-010, 50×, at 100-fold dilution), and penicillin/streptomycin (ThermoFisher, final 1%). Cells were maintained in Ultra-low attachment plate (Corning) as sphere-forming cells. For ATP assays and protein/RNA isolation, cells were plated into 96-well plates or 6-well plated that were coated with poly-lysine (Sigma P6407, 10 μg/mL in PBS, 4 hr at 37° C.) and laminin (ThermoFisher 23017015, ˜5 mg/L in PBS, overnight at 37° C.). MEFs and Astrocytes were cultured in DMEM supplemented with 10% FBS and 1% Penicillin/Streptomycin.
2,000 cells were plated into each well of 96-well plates. About 3 hours later, cells were treated by 12M11, at 800-fold dilution (4 mM stock was diluted into 5 μM final concentration). […] CellTiter-Glo assay (Promega) was performed according to manufacturer's instructions, by adding 20 μL of reagent into each well. Luminescence signal was detected by the PolarStar plate reader (BMG Labtech). Experiments were performed in quadruplicate, and results are presented with mean average −/+ standard deviation. EC505 were calculated by GraphPad Prism6 software.
The compounds described herein were tested using a cell-based cytotoxicity assay against neuronal stem cells in Mut6, which is a mouse glioblastoma model cell line.
Molecule CCc1n(CC(=O)O[C@H]2C[C@@H](C)CC[C@@H]2C(C)C)c2ccccc2[n+]1C has an EC50 of 100 to 1000 nM.
With CCc1n(CC(=O)OC(C)(C)C)c2ccccc2[n+]1C the EC50 was over 5000 nM.
CC(C)[C@@H]1CC[C@@H](C)CC1OC(=O)Cn1c(-c2ccc(OC(=O)CCCCC3SC[C@H]4NC(=O)N[C@@H]34)cc2)[n+](C)c2ccccc21 (stereo partly shown) gave an EC50 of 1000 to 5000 nM.
In the case of C#CCOc1ccc(-c2n(CC(=O)OC3C[C@H](C)CC[C@H]3C(C)C)c3ccccc3[n+]2C)cc1N=[N+]=[N-] (stereo partly shown), the EC50 is reported as 100 to 1000 nM.
C#CCN(CC(=O)Oc1ccc(-c2n(CC(=O)OC3C[C@H](C)CC[C@H]3C(C)C)c3ccccc3[n+]2C)cc1)Cc1ccc(C2(C(F)(F)F)N=N2)cc1 (stereo partly shown) gave an EC50 of 1000 to 5000 nM.
CCc1n(CC(=O)OC2C[C@H](C)CC[C@H]2C(C)C)c2ccccc2[n+]1C (stereo partly shown) gave an EC50 of under 100 nM.
Work on CCc1n([C@H](C)C(=O)OC2C[C@H](C)CC[C@H]2C(C)C)c2ccccc2[n+]1C (stereo partly shown) yielded an EC50 of under 100 nM.
Work on CCc1n([C@@H](C)C(=O)OC2C[C@H](C)CC[C@H]2C(C)C)c2ccccc2[n+]1C (stereo partly shown) yielded an EC50 of under 100 nM.
CCc1n([C@H](C)C(=O)OC2C[C@@H](C)CC[C@@H]2C(C)C)c2ccccc2[n+]1C (stereo partly shown) showed an EC50 of under 100 nM.
Work on CCc1n([C@@H](C(=O)OC2C[C@H](C)CC[C@H]2C(C)C)C(C)(C)C)c2ccccc2[n+]1C (stereo partly shown) yielded an EC50 of 100 to 1000 nM.
In the case of CCc1n([C@@H](C(=O)OC2C[C@H](C)CC[C@H]2C(C)C)C2CC2)c2ccccc2[n+]1C (stereo partly shown), the EC50 is reported as under 100 nM.
With CCc1n([C@@H](C(=O)OC2C[C@H](C)CC[C@H]2C(C)C)C2CCCC2)c2ccccc2[n+]1C (stereo partly shown) the EC50 was under 100 nM.
In the case of CCc1n([C@H](Cc2ccccc2)C(=O)OC2C[C@H](C)CC[C@H]2C(C)C)c2ccccc2[n+]1C (stereo partly shown), the EC50 is reported as 100 to 1000 nM.
For CCc1n([C@H](Cc2ccc(C)cc2)C(=O)OC2C[C@H](C)CC[C@H]2C(C)C)c2ccccc2[n+]1C (stereo partly shown), the EC50 was under 100 nM.
With CCc1n([C@H](Cc2ccc(O)cc2)C(=O)OC2C[C@H](C)CC[C@H]2C(C)C)c2ccccc2[n+]1C (stereo partly shown) the EC50 was 1000 to 5000 nM.
COc1ccc(-c2n([C@H](C)C(=O)OC3C[C@H](C)CC[C@H]3C(C)C)c3ccccc3[n+]2C)cc1 (stereo partly shown) showed an EC50 of under 100 nM.
CC(C)[C@@H]1CC[C@@H](C)CC1OC(=O)[C@@H](C)n1c(-c2ccc(N(C)C)cc2)[n+](C)c2ccccc21 (stereo partly shown) was tested, and the EC50 was under 100 nM.
For CC(C)[C@@H]1CC[C@@H](C)CC1OC(=O)[C@@H](C)n1c(-c2ccc(C(F)(F)F)cc2)[n+](C)c2ccccc21 (stereo partly shown), the EC50 was 100 to 1000 nM.
COc1ccc(-c2n([C@@H](C(=O)OC3C[C@H](C)CC[C@H]3C(C)C)C3CC3)c3ccccc3[n+]2C)cc1 (stereo partly shown) gave an EC50 of under 100 nM.
CC(C)[C@@H]1CC[C@@H](C)CC1OC(=O)[C@@H](C1CC1)n1c(-c2ccc(N(C)C)cc2)[n+](C)c2ccccc21 (stereo partly shown) showed an EC50 of under 100 nM.
CC(C)[C@@H]1CC[C@@H](C)CC1OC(=O)[C@@H](C1CC1)n1c(-c2ccc(C(F)(F)F)cc2)[n+](C)c2ccccc21 (stereo partly shown) gave an EC50 of 100 to 1000 nM.
CCc1n(CC(=O)OC2C[C@H](C)CC[C@H]2C(C)C)c2ccc(Br)cc2[n+]1C (stereo partly shown) was tested, and the EC50 was 100 to 1000 nM.
CCc1n(CC(=O)OC2C[C@H](C)CC[C@H]2C(C)C)c2cc(Br)ccc2[n+]1C (stereo partly shown) was tested, and the EC50 was 100 to 1000 nM.
Molecule CCc1n(CC(=O)OC2C[C@H](C)CC[C@H]2C(C)C)c2ccc(Cl)cc2[n+]1C (stereo partly shown) has an EC50 of 100 to 1000 nM.
Molecule CCc1n(CC(=O)OC2C[C@H](C)CC[C@H]2C(C)C)c2cc(Cl)ccc2[n+]1C (stereo partly shown) has an EC50 of 100 to 1000 nM.
CCc1n(CC(=O)OC2C[C@H](C)CC[C@H]2C(C)C)c2ccc(F)cc2[n+]1C (stereo partly shown) showed an EC50 of 100 to 1000 nM.
With CCc1n(CC(=O)OC2C[C@H](C)CC[C@H]2C(C)C)c2cc(F)ccc2[n+]1C (stereo partly shown) the EC50 was under 100 nM.
Molecule CCc1n(CC(=O)OC2C[C@H](C)CC[C@H]2C(C)C)c2ccc(C(F)(F)F)cc2[n+]1C (stereo partly shown) has an EC50 of 1000 to 5000 nM.
CCc1n(CC(=O)OC2C[C@H](C)CC[C@H]2C(C)C)c2cc(C(F)(F)F)ccc2[n+]1C (stereo partly shown) showed an EC50 of 1000 to 5000 nM.
CCc1n(CC(=O)OC2C[C@H](C)CC[C@H]2C(C)C)c2ccc(C#N)cc2[n+]1C (stereo partly shown) gave an EC50 of 1000 to 5000 nM.
Work on CCc1n(CC(=O)OC2C[C@H](C)CC[C@H]2C(C)C)c2cc(C#N)ccc2[n+]1C (stereo partly shown) yielded an EC50 of 1000 to 5000 nM.
CCc1n(CC(=O)OC2C[C@H](C)CC[C@H]2C(C)C)c2ccc([N+](=O)[O-])cc2[n+]1C (stereo partly shown) gave an EC50 of 1000 to 5000 nM.
CCc1n(CC(=O)OC2C[C@H](C)CC[C@H]2C(C)C)c2cc([N+](=O)[O-])ccc2[n+]1C (stereo partly shown) was tested, and the EC50 was 1000 to 5000 nM.
Molecule CCN(CC)c1ccc(-c2n([C@H](C)C(=O)OC3C[C@H](C)CC[C@H]3C(C)C)c3ccccc3[n+]2C)cc1 (stereo partly shown) has an EC50 of under 100 nM.
For CCN(CC)c1ccc(-c2n([C@@H](C(=O)OC3C[C@H](C)CC[C@H]3C(C)C)C3CC3)c3ccccc3[n+]2C)cc1 (stereo partly shown), the EC50 was under 100 nM.
CC(C)[C@@H]1CC[C@@H](C)CC1OC(=O)[C@@H](C)n1c(-c2ccc(N(C)C)c(C(F)(F)F)c2)[n+](C)c2ccccc21 (stereo partly shown) was tested, and the EC50 was under 100 nM.
CC(C)[C@@H]1CC[C@@H](C)CC1OC(=O)[C@@H](C1CC1)n1c(-c2ccc(N(C)C)c(C(F)(F)F)c2)[n+](C)c2ccccc21 (stereo partly shown) gave an EC50 of 100 to 1000 nM.
For Cc1cc(-c2n([C@H](C)C(=O)OC3C[C@H](C)CC[C@H]3C(C)C)c3ccccc3[n+]2C)ccc1N(C)C (stereo partly shown), the EC50 was under 100 nM.
In the case of Cc1cc(-c2n([C@@H](C(=O)OC3C[C@H](C)CC[C@H]3C(C)C)C3CC3)c3ccccc3[n+]2C)ccc1N(C)C (stereo partly shown), the EC50 is reported as under 100 nM.
With CC(C)[C@@H]1CC[C@@H](C)CC1OC(=O)[C@@H](C)n1c(-c2ccc(N(C3CC3)C3CC3)cc2)[n+](C)c2ccccc21 (stereo partly shown) the EC50 was under 100 nM.
For CCCCN(CCCC)c1ccc(-c2n([C@H](C)C(=O)OC3C[C@H](C)CC[C@H]3C(C)C)c3ccccc3[n+]2C)cc1 (stereo partly shown), the EC50 was under 100 nM.
With CC(C)[C@@H]1CC[C@@H](C)CC1OC(=O)[C@@H](C1CC1)n1c(-c2ccc(N(C3CC3)C3CC3)cc2)[n+](C)c2ccccc21 (stereo partly shown) the EC50 was under 100 nM.
Molecule CCCCN(CCCC)c1ccc(-c2n([C@@H](C(=O)OC3C[C@H](C)CC[C@H]3C(C)C)C3CC3)c3ccccc3[n+]2C)cc1 (stereo partly shown) has an EC50 of under 100 nM.
CCc1n(CC(=O)OC2C[C@H](C)CC[C@H]2C(C)C)c2ccncc2[n+]1C (stereo partly shown) gave an EC50 of 100 to 1000 nM.
CCc1n(CC(=O)OC2C[C@H](C)CC[C@H]2C(C)C)c2ncccc2[n+]1C (stereo partly shown) showed an EC50 of 100 to 1000 nM.
Molecule CCc1n(CC(=O)OC2C[C@H](C)CC[C@H]2C(C)C)c2cccnc2[n+]1C (stereo partly shown) has an EC50 of 100 to 1000 nM.
With CCc1n(CC(=O)OC2C[C@H](C)CC[C@H]2C(C)C)c2cc(OC)ccc2[n+]1C (stereo partly shown) the EC50 was under 100 nM.
CCc1n(CC(=O)OC2C[C@H](C)CC[C@H]2C(C)C)c2ccc(OC)cc2[n+]1C (stereo partly shown) gave an EC50 of under 100 nM.
In the case of CCc1n(CC(=O)OC2C[C@H](C)CC[C@H]2C(C)C)c2cc(C)ccc2[n+]1C (stereo partly shown), the EC50 is reported as under 100 nM.
CC[n+]1c(-c2ccc(N(C)C)cc2)n(CC(=O)OC2C[C@H](C)CC[C@H]2C(C)C)c2ccccc21 (stereo partly shown) was tested, and the EC50 was under 100 nM.
Molecule C#CC[n+]1c(-c2ccc(N(C)C)cc2)n(CC(=O)OC2C[C@H](C)CC[C@H]2C(C)C)c2ccccc21 (stereo partly shown) has an EC50 of under 100 nM.
C=CC[n+]1c(-c2ccc(N(C)C)cc2)n(CC(=O)OC2C[C@H](C)CC[C@H]2C(C)C)c2ccccc21 (stereo partly shown) gave an EC50 of under 100 nM.
CC(C)[C@@H]1CC[C@@H](C)CC1OC(=O)Cn1c(-c2ccc(N(C)C)cc2)[n+](Cc2ccccc2)c2ccccc21 (stereo partly shown) was tested, and the EC50 was under 100 nM.
Work on CC(C)[C@@H]1CC[C@@H](C)CC1OC(=O)Cn1c(-c2ccc(N(C)C)cc2)[n+](CC2CC2)c2ccccc21 (stereo partly shown) yielded an EC50 of under 100 nM.
Work on CC(C)[C@@H]1CC[C@@H](C)CC1OC(=O)Cn1c(-c2ccc(Cl)cc2)[n+](C)c2ccccc21 (stereo partly shown) yielded an EC50 of 100 to 1000 nM.
CC(C)[C@@H]1CC[C@@H](C)CC1OC(=O)Cn1c(-c2ccc(Cl)c(Cl)c2)[n+](C)c2ccccc21 (stereo partly shown) was tested, and the EC50 was 100 to 1000 nM.
With CC(C)[C@@H]1CC[C@@H](C)CC1OC(=O)Cn1c(-c2ccc(F)cc2)[n+](C)c2ccccc21 (stereo partly shown) the EC50 was 100 to 1000 nM.
In the case of CC(C)[C@@H]1CC[C@@H](C)CC1OC(=O)Cn1c(-c2ccc(C(F)(F)F)cc2)[n+](C)c2ccccc21 (stereo partly shown), the EC50 is reported as 100 to 1000 nM.
